Measured values as given in patent US6924299B2, “Methods and compositions useful in enhancing oxygen delivery to cells” (University of Kentucky Research Foundation, priority 2000, dated 2005).

Experiments:
skin of human volunteers [1] = experiment: Visual observation of vasodilation (blushing) after topical application of lotion to forearm; type: in vivo; conditions: for Vasodilation at 0.1%: 0.1% in skin lotion; for Vasodilation at 0.1% / Vasodilation at 1.0%: anterior forearm, visual blushing; for Vasodilation at 1.0%: 1.0% in skin lotion
Description: This example details the first of two sets of experiments designed to determine the vasodilation effect of alkyl niacin esters. Formulations were prepared by combining the alkyl esters referred to supra in a skin lotion, at 0.1% and 1.0% concentrations. The lotions were applied topically to the skin of human volunteers on the anterior surface of a forearm. Vasodilation was observed visually, i.e., by observing blushing at the site of application, or lack thereof. Both onset and duration of vasodilation were measured.

skin of human volunteers [2] = experiment: Skin oxygen / CO2 content by transcutaneous monitor after topical application; type: in vivo
Description: To examine this issue, the oxygen content of skin to which the octyl ester discussed supra was determined directly, using a transcutaneous oxygen monitor. The 1% formulation of the octyl ester was applied to skin for 30 minutes. After this thirty minute period, the skin was cleaned with soap and water, wiped with an alcohol swab, and a drop of deionized water was placed on the sensor surface before its attachment to the anterior surface of the volunteers' forearms. The transcutaneous values were recorded constantly, and stored by the instrument. The monitor measures relative oxygen content, because the temperature at which the monitor operates does impact the oxygen permeability of the stratum corneum. See, e.g., Martin, Resp. […] The sensor was calibrated at 4 hour intervals, or whenever the sensor temperature was changed.
The monitor was operated at a temperature of 40° C. Values are given for both a control, and the formulation described herein.
In a follow-up experiment, the monitor was operated at 38° C., and both O2 and CO2 were measured, with a combined transcutaneous oxygen and CO2 monitor. […] The control is represented by the dotted line.
Parallel experiments were carried out using 0.1% octyl niacin ester lotion, and a lotion containing octyl niacin ester (0.1%), and 0.1% butyl benzoate.
Oxygen content was measured in the same way as is described, supra, or using other techniques known to the art.

[3] = monitor at 38° C., versus control, FIG. 3

Row | SMILES | Vasodilation at 0.1% (skin of human volunteers [1]) | Vasodilation at 1.0% (skin of human volunteers [1]) | other results
1 | COC(=O)c1cccnc1 [1 carbon] | Yes | Yes | 
2 | CCOC(=O)c1cccnc1 [2 carbons, Ethyl niacin] | Yes | Yes | Vasodilation Effect at 0.1%: Onset (skin of human volunteers [1]; 0.1% lotion, visual determination): 5 to 10 min
3 | CCCCOC(=O)c1cccnc1 [4 carbons] | Yes | Yes | 
4 | CCCCCCOC(=O)c1cccnc1 [6 carbons, Hexyl niacin] | Yes | Yes | 
5 | CCCCCCCCOC(=O)c1cccnc1 [8 carbons, Octyl niacin] | Yes | Yes | Vasodilation Effect at 0.1%: Duration (skin of human volunteers [1]; 0.1% lotion, visual determination, listed as C8): longest effect; Skin oxygen content (transcutaneous oxygen monitor) (skin of human volunteers [2]; 1% formulation applied 30 minutes, monitor at 40° C., versus control, FIG. 2): sustained increase in skin oxygen; Skin CO2 content (combined transcutaneous oxygen and CO2 monitor) (skin of human volunteers [2]; [3]): decrease in CO2 content; Skin oxygen content (combined transcutaneous oxygen and CO2 monitor) (skin of human volunteers [2]; [3]): sustained increase in skin oxygen content
6 | CCCCCCCCCOC(=O)c1cccnc1 [9 carbons] | No | Yes | Vasodilation at 1.0% (skin of human volunteers [1]; listed as C9): caused vasodilation
7 | CCCCCCCCCCOC(=O)c1cccnc1 [10 carbons] | No | Yes | Vasodilation at 1.0% (skin of human volunteers [1]; listed as C10): caused vasodilation
8 | CCCCCCCCCCCOC(=O)c1cccnc1 [11 carbons] | No | Slight | 
9 | CCCCCCCCCCCCOC(=O)c1cccnc1 [12 carbons] | No | No | 
10 | CCCCCCCCCCCCCOC(=O)c1cccnc1 [13 carbons] | No | No | 
11 | CCCCCCCCCCCCCCOC(=O)c1cccnc1 [14 carbons] | No | No | 
12 | CCCCCCCCCCCCCCCOC(=O)c1cccnc1 [15 carbons] | No | No | 
13 | CCCCCCCCCCCCCCCCOC(=O)c1cccnc1 [16 carbons] | No | No | 
14 | CCCCCCCCCCCCCCCCCCOC(=O)c1cccnc1 [18 carbons] | No | No | 
15 | CCCCOC(=O)c1ccccc1 [Butyl benzoate, reference compound] |  |  | Effect on the increase in skin oxygen content caused by octyl niacin ester (skin of human volunteers [2]; lotion with 0.1% octyl niacin ester plus 0.1% butyl benzoate versus 0.1% octyl niacin ester lotion alone, FIG. 4): blocked the increase in oxygen content
